# ChEMBL document CHEMBL3885881, “DrugMatrix”
# Species on record: Rattus norvegicus
# Assay: DrugMatrix - Regimen: Daily Repeat
# Format: toxicity, organism-based, Sprague-Dawley
# Design: regimen Daily Repeat, gender Male, age 6-8 weeks
# Details: in vivo, po, 1868 mg/kg, route oral GAVAGE, dose level High, vehicle .5 % CMC; for PLATELET COUNT / ABSOLUTE BASOPHIL / ABSOLUTE EOSINOPHIL / ABSOLUTE LYMPHOCYTE / ABSOLUTE MONOCYTE / ABSOLUTE SEGMENTED NEUTROPHIL / BASOPHIL / EOSINOPHIL / ERYTHROCYTE COUNT / HEMATOCRIT / HEMOGLOBIN / LEUKOCYTE COUNT / LYMPHOCYTE / MEAN CORPUSCULAR HEMOGLOBIN / MEAN CORPUSCULAR HEMOGLOBIN CONCENTRATION / MEAN CORPUSCULAR VOLUME / MONOCYTE / NEUTROPHIL / NUCLEATED RED BLOOD CELLS: tissue Blood; for ALANINE AMINOTRANSFERASE / ALBUMIN / ALKALINE PHOSPHATASE / ASPARTATE AMINOTRANSFERASE / BLOOD UREA NITROGEN / CARBON DIOXIDE / CHLORIDE / CHOLESTEROL / CREATININE / GLUCOSE / LACTATE DEHYDROGENASE / LIPASE / PHOSPHORUS / POTASSIUM / SODIUM / TOTAL BILIRUBIN / URIC ACID / TOTAL PROTEIN: tissue Plasma
smiles,measurement,setting,value
CC(=O)OCc1ccccc1 [E1501],PLATELET COUNT,"120 h, time 5 day",934.67 x10E3/uL
same,ALANINE AMINOTRANSFERASE,"120 h, time 5 day",127 u/L
same,ALBUMIN,"120 h, time 5 day",4.53 G/DL
same,ALKALINE PHOSPHATASE,"120 h, time 5 day",336 u/L
same,ASPARTATE AMINOTRANSFERASE,"120 h, time 5 day",386 u/L
same,BLOOD UREA NITROGEN,"120 h, time 5 day",22 mg/dL
same,CARBON DIOXIDE,"120 h, time 5 day",30 mmol/L
same,CHLORIDE,"120 h, time 5 day",99.67 MEQ/L
same,CHOLESTEROL,"120 h, time 5 day",65 mg/dL
same,CREATININE,"120 h, time 5 day",0.28 mg/dL
same,GLUCOSE,"120 h, time 5 day",167 mg/dL
same,LACTATE DEHYDROGENASE,"120 h, time 5 day",574 u/L
same,LIPASE,"120 h, time 5 day",9.67 u/L
same,PHOSPHORUS,"120 h, time 5 day",13.07 mg/dL
same,POTASSIUM,"120 h, time 5 day",6.24 MEQ/L
same,SODIUM,"120 h, time 5 day",148.47 MEQ/L
same,TOTAL BILIRUBIN,"120 h, time 5 day",0.17 mg/dL
same,URIC ACID,"120 h, time 5 day",1.83 mg/dL
same,ABSOLUTE BASOPHIL,"[…], time 11 day",0 CELLS/uL
same,ABSOLUTE EOSINOPHIL,"[…], time 11 day",0 CELLS/uL
same,ABSOLUTE LYMPHOCYTE,"[…], time 11 day",4840 CELLS/uL
same,ABSOLUTE MONOCYTE,"[…], time 11 day",440 CELLS/uL
same,ABSOLUTE SEGMENTED NEUTROPHIL,"[…], time 11 day",3520 CELLS/uL
same,BASOPHIL,"[…], time 11 day",0%
same,EOSINOPHIL,"[…], time 11 day",0%
same,ERYTHROCYTE COUNT,"[…], time 11 day",6.27 x10E6/uL
same,HEMATOCRIT,"[…], time 11 day",37.6%
same,HEMOGLOBIN,"[…], time 11 day",13.8 G/DL
same,LEUKOCYTE COUNT,"[…], time 11 day",8.8 x10E3/uL
same,LYMPHOCYTE,"[…], time 11 day",55%
same,MEAN CORPUSCULAR HEMOGLOBIN,"[…], time 11 day",22 pg
same,MEAN CORPUSCULAR HEMOGLOBIN CONCENTRATION,"[…], time 11 day",36.7 G/DL
same,MEAN CORPUSCULAR VOLUME,"[…], time 11 day",60 fL
same,MONOCYTE,"[…], time 11 day",5%
same,NEUTROPHIL,"[…], time 11 day",40%
same,NUCLEATED RED BLOOD CELLS,"[…], time 11 day",0 /100WBC
same,PLATELET COUNT,"[…], time 11 day",822 x10E3/uL
same,ABSOLUTE BASOPHIL,"[…], time 14 day",0 CELLS/uL
same,ABSOLUTE EOSINOPHIL,"[…], time 14 day",388 CELLS/uL
same,ABSOLUTE LYMPHOCYTE,"[…], time 14 day",14397 CELLS/uL
same,ABSOLUTE MONOCYTE,"[…], time 14 day",529.5 CELLS/uL
same,ABSOLUTE SEGMENTED NEUTROPHIL,"[…], time 14 day",1785.5 CELLS/uL
same,BASOPHIL,"[…], time 14 day",0%
same,EOSINOPHIL,"[…], time 14 day",2%
same,ERYTHROCYTE COUNT,"[…], time 14 day",6.34 x10E6/uL
same,HEMATOCRIT,"[…], time 14 day",38%
same,HEMOGLOBIN,"[…], time 14 day",13.85 G/DL
same,LEUKOCYTE COUNT,"[…], time 14 day",17.1 x10E3/uL
same,LYMPHOCYTE,"[…], time 14 day",85%
same,MEAN CORPUSCULAR HEMOGLOBIN,"[…], time 14 day",21.9 pg
same,MEAN CORPUSCULAR HEMOGLOBIN CONCENTRATION,"[…], time 14 day",36.35 G/DL
same,MEAN CORPUSCULAR VOLUME,"[…], time 14 day",60.15 fL
same,MONOCYTE,"[…], time 14 day",3.5%
same,NEUTROPHIL,"[…], time 14 day",9.5%
same,NUCLEATED RED BLOOD CELLS,"[…], time 14 day",0 /100WBC
same,PLATELET COUNT,"[…], time 14 day",722 x10E3/uL
same,ALANINE AMINOTRANSFERASE,"[…], time 11 day",128 u/L
same,ALBUMIN,"[…], time 11 day",3.9 G/DL
same,ALKALINE PHOSPHATASE,"[…], time 11 day",284 u/L
same,ASPARTATE AMINOTRANSFERASE,"[…], time 11 day",640 u/L
same,BLOOD UREA NITROGEN,"[…], time 11 day",44 mg/dL
same,CARBON DIOXIDE,"[…], time 11 day",31 mmol/L
same,CHLORIDE,"[…], time 11 day",95 MEQ/L
same,CHOLESTEROL,"[…], time 11 day",70 mg/dL
same,CREATININE,"[…], time 11 day",0.26 mg/dL
same,GLUCOSE,"[…], time 11 day",191 mg/dL
same,LACTATE DEHYDROGENASE,"[…], time 11 day",656 u/L
same,LIPASE,"[…], time 11 day",9 u/L
same,PHOSPHORUS,"[…], time 11 day",14.5 mg/dL
same,POTASSIUM,"[…], time 11 day",4.9 MEQ/L
same,SODIUM,"[…], time 11 day",146.3 MEQ/L
same,TOTAL BILIRUBIN,"[…], time 11 day",0.1 mg/dL
same,TOTAL PROTEIN,"[…], time 11 day",5.4 G/DL
same,URIC ACID,"[…], time 11 day",1.7 mg/dL
same,ALANINE AMINOTRANSFERASE,"[…], time 14 day",76.5 u/L
same,ALBUMIN,"[…], time 14 day",4.3 G/DL
same,ALKALINE PHOSPHATASE,"[…], time 14 day",267 u/L
same,ASPARTATE AMINOTRANSFERASE,"[…], time 14 day",238 u/L
same,BLOOD UREA NITROGEN,"[…], time 14 day",19 mg/dL
same,CARBON DIOXIDE,"[…], time 14 day",21.5 mmol/L
same,CHLORIDE,"[…], time 14 day",102.5 MEQ/L
same,CHOLESTEROL,"[…], time 14 day",79 mg/dL
same,CREATININE,"[…], time 14 day",0.27 mg/dL
same,GLUCOSE,"[…], time 14 day",207 mg/dL
same,LACTATE DEHYDROGENASE,"[…], time 14 day",251.5 u/L
same,LIPASE,"[…], time 14 day",9 u/L
same,PHOSPHORUS,"[…], time 14 day",11.95 mg/dL
same,POTASSIUM,"[…], time 14 day",5.28 MEQ/L
same,SODIUM,"[…], time 14 day",152.2 MEQ/L
same,TOTAL BILIRUBIN,"[…], time 14 day",0.25 mg/dL
same,TOTAL PROTEIN,"[…], time 14 day",6.5 G/DL
same,URIC ACID,"[…], time 14 day",1.95 mg/dL
